As usually defined, the Kb is the equilibrium dissociation constant of an antagonist, usually derived from a functional assay. As usually defined, the Ki is a measure of affinity in units of concentration, obtained from inhibition or displacement.

Structures are written as SMILES.

T1 sequence (Q13639 whole entry): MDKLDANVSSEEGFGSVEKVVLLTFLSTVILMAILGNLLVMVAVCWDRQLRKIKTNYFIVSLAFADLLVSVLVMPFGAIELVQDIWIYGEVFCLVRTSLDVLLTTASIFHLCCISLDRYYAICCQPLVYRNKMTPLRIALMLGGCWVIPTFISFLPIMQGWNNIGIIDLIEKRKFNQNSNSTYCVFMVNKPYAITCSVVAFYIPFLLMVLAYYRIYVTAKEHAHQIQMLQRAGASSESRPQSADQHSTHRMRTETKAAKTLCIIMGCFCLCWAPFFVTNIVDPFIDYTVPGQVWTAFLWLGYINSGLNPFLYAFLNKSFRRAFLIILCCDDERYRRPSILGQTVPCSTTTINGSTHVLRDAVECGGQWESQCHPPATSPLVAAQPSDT

One test has as its target T1, 5-hydroxytryptamine receptor 4 (Homo sapiens, UniProt Q13639). As to the kind of experiment: Antagonist activity (inhibition of 5-HT-stimulated cAMP synthesis) of compound at cloned human 5-hydroxytryptamine 4E receptor expressed in C6 glial cells by Schild analysis.
`COc1cc(N)c(Cl)cc1C(=O)OCCN1CCC(CNS(=O)(=O)c2cccc3c(N(C)C)cccc23)CC1`: the Kb was determined as 5.7 nM.
The same measure, in the same setting: the value for `COc1cc(N)c(Cl)cc1C(=O)OCCN1CCC(CNc2ccc([N+](=O)[O-])c3nonc23)CC1` was 2.1 nM.
Compound `COc1cc(N)c(Cl)cc1C(=O)OCCN1CCC(CN2C(=O)c3cccc4c(N)ccc(c34)C2=O)CC1` yielded a Kb of 9 nM.

The target in another test is T1, 5-hydroxytryptamine receptor 4. As to the kind of experiment: Binding affinity towards cloned human 5-hydroxytryptamine 4E receptor expressed in C6 glial cells using [3H]GR-113808 as radioligand. The test is classed as cell-based.
`COc1cc(N)c(Cl)cc1C(=O)OCCN1CCC(CCCCN2C(=O)c3cccc4c(N(C)C)ccc(c34)C2=O)CC1` showed a Ki of 59 nM.
Still for that read-out and setting: the value for `COc1cc(N)c(Cl)cc1C(=O)OCCN1CCC(CCCCNS(=O)(=O)c2cccc3c(N(C)C)cccc23)CC1` was 24 nM.
`COc1cc(N)c(Cl)cc1C(=O)OCCN1CCN(C(=O)CCCCCCCNS(=O)(=O)c2cccc3c(N(C)C)cccc23)CC1` gave an inhibition constant Ki of 31 nM.
Same read-out and setting: the value for `COc1cc(N)c(Cl)cc1C(=O)OCCN1CCC(CCCNS(=O)(=O)c2cccc3c(N(C)C)cccc23)CC1` was 32 nM; that for `COc1cc(N)c(Cl)cc1C(=O)OCCN1CCN(C(=O)CCCCCCCCCCNS(=O)(=O)c2cccc3c(N(C)C)cccc23)CC1` was 96 nM; that for `COc1cc(N)c(Cl)cc1C(=O)OCCN1CCC(CNS(=O)(=O)c2cccc3c(N(C)C)cccc23)CC1` was 7 nM.
Same read-out and setting: the value for `COc1cc(N)c(Cl)cc1C(=O)OCCN1CCN(C(=O)CCNS(=O)(=O)c2cccc3c(N(C)C)cccc23)CC1` was 116 nM.
`COc1cc(N)c(Cl)cc1C(=O)OCCN1CCC(NS(=O)(=O)c2cccc3c(N(C)C)cccc23)CC1` gave a Ki of 264 nM.
On the same count and under the same terms, the same measure for `COc1cc(N)c(Cl)cc1C(=O)OCCN1CCC(CN2C(=O)c3cccc4c(N)ccc(c34)C2=O)CC1`: 64 nM; for `COc1cc(N)c(Cl)cc1C(=O)OCCN1CCC(CCNS(=O)(=O)c2cccc3c(N(C)C)cccc23)CC1`: 77 nM; for `COc1cc(N)c(Cl)cc1C(=O)OCCN1CCN(C(=O)CCCCCNS(=O)(=O)c2cccc3c(N(C)C)cccc23)CC1`: 180 nM.
In turn, `COc1cc(N)c(Cl)cc1C(=O)OCCN1CCC(CNc2ccc([N+](=O)[O-])c3n[o+][n-]c23)CC1` had an inhibition constant (Ki) of 7.5 nM.
Same read-out and setting: the value for `COc1cc(N)c(Cl)cc1C(=O)OCCN1CCC(CN2C(=O)c3cccc4c(N(C)C)ccc(c34)C2=O)CC1` was 181 nM.
The same measure, in the same setting: the same measure for `COc1cc(N)c(Cl)cc1C(=O)OCCN1CCN(C(=O)CNS(=O)(=O)c2cccc3c(N(C)C)cccc23)CC1`: 1720 nM; for `COc1cc(N)c(Cl)cc1C(=O)OCCN1CCN(C(=O)CCCNS(=O)(=O)c2cccc3c(N(C)C)cccc23)CC1`: 183 nM.

Source of the values: ChEMBL document CHEMBL1145804, “Synthesis and characterization of the first fluorescent antagonists for human 5-HT4 receptors” (J Med Chem, 2003).
